This data set has as its system mouse. Type of data set: in vivo. Conditions: oral administration at 5 g/kg weight. An excerpt:
The theanine used in the present invention has high safety. […] Also, especially L-theanine is known as a main component of umami (tastiness) of the green tea, and is also used as a food additive giving umami, without the limitation of its added amount under the regulation for food hygiene. Moreover, contrary to the conventional drugs, since there is no side effect by theanine at all, the mood disorders can be safely and effectively treated, ameliorated or the like according to the composition of the present invention.

Turning to `CCNC(=O)CC[C@H](N)C(=O)O` [theanine], the cases of death entry is “no cases of death”.

(Values after patent US20040171624A1, “Pharmaceutical composition for treating mood disorders” (priority 2001, published 2004).)
